Experiments:
Assay in all cases: relative viability (nuclei count vs DMSO), 5 days (fraction); higher = more cells survive
[1] = compound: N#CC[C@H](C1CCCC1)n1cc(-c2ncnc3[nH]ccc23)cn1 [Ruxolitinib] + COc1cc2c(Oc3ccc(NC(=O)C4(C(=O)Nc5ccc(F)cc5)CC4)cc3F)ccnc2cc1OCCCN1CCOCC1 [Foretinib] (partner 0.25 µM)
Method in brief: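 Cells from lung cancer lines were seeded into 1536-well plates and, one day later, dosed by pin tool. Treatments were either a single drug or a fixed dose of an anchor drug with five library-drug doses (not always all listed) in √10 steps. After 5 days, nuclei were stained in a one-step fixation (final 0.05% Triton X-100, 1% formaldehyde, 1 ug/ml Hoechst) and counted on 4× images, and relative viability is the treated-to-vehicle nuclei ratio, as the median of duplicate plates.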

[2] = compound: CS(=O)(=O)c1ccc(-c2cnc(N)c(C(=O)Nc3ccccc3)n2)cc1 [VE-821]
Method in brief: (§1)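 After an overnight hold at 37 °C, lung cancer cell lines in 1536-well plates were pinned with five library-drug doses (not always all listed), each √10 from the next, on vehicle-anchored plates. The cells stayed 5 days without fresh medium, then a one-step fix, permeabilisation and Hoechst stain preceded 4× imaging and MetaXpress nuclear counts. A plate passed only with control CV under 25% and at least one doubling. Viability is the median, over plates, of treated-well nuclei relative to vehicle-well nuclei.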

[3] = compound: CS(=O)(=O)c1ccc(C(=O)Nc2ccc(Cl)c(-c3ccccn3)c2)c(Cl)c1 [Vismodegib]
Method in brief: as §1

[4] = compound: N#CC[C@H](C1CCCC1)n1cc(-c2ncnc3[nH]ccc23)cn1 [Ruxolitinib]
Method in brief: as §1

| Cell Line | relative viability ([1]; first compound 0.08 µM) | relative viability ([1]; first compound 0.253 µM) | relative viability ([1]; first compound 0.8 µM) | relative viability ([1]; first compound 2.53 µM) | relative viability ([1]; first compound 8 µM) | relative viability ([2]; 0.08 µM) | relative viability ([2]; 0.253 µM) | relative viability ([2]; 0.8 µM) | relative viability ([2]; 2.53 µM) | relative viability ([2]; 8 µM) | relative viability ([3]; 0.08 µM) | relative viability ([3]; 0.253 µM) | relative viability ([3]; 0.8 µM) | relative viability ([3]; 2.53 µM) | relative viability ([3]; 8 µM) | relative viability ([4]; 0.08 µM) | relative viability ([4]; 0.253 µM) | relative viability ([4]; 0.8 µM) | relative viability ([4]; 2.53 µM) | relative viability ([4]; 8 µM) |
| --- | --- | --- | --- | --- | --- | --- | --- | --- | --- | --- | --- | --- | --- | --- | --- | --- | --- | --- | --- | --- |
| NCI-H1915 | 1.1 | 1.11 | 1.17 | 0.947 | 0.982 | 1.07 | 0.949 | 1.02 | 1.05 | 0.755 | 1.02 | 1.01 | 0.957 | 0.983 | 0.907 | 0.983 | 1.03 | 1.07 | 0.901 | 0.85 |
| SK-MES-1 | 0.927 | 0.714 | 0.955 | 0.788 | 0.768 | 1.03 | 0.955 | 0.905 | 0.933 | 0.809 | 0.964 | 0.997 | 1.01 | 0.986 | 1.04 | 1.04 | 0.967 | 1.02 | 0.846 | 0.725 |
| NCI-H522 | – | – | – | – | – | 0.974 | 0.938 | 0.934 | 1.06 | 0.849 | 0.973 | 0.876 | 0.957 | 1 | 1.01 | 1.01 | 0.95 | 1.01 | 0.895 | 0.874 |
| NCI-H1299 | 1.09 | 1.1 | 1.05 | 0.982 | 0.853 | 1.02 | 0.971 | 0.987 | 0.997 | 0.941 | 1.04 | 0.973 | 1.02 | 1.03 | 1.02 | 1.04 | 1.01 | 1.01 | 0.974 | 0.866 |
| NCI-H1651 | 0.621 | 0.791 | 0.947 | 0.776 | 0.95 | 0.976 | 0.954 | 0.922 | 0.977 | 0.969 | 0.945 | 0.976 | 0.947 | 0.956 | 1.02 | 0.948 | 0.978 | 0.971 | 0.939 | 0.976 |
| NCI-H661 | 0.92 | 1.05 | 1.08 | 0.94 | 0.926 | 0.986 | 0.998 | 0.976 | 0.997 | 0.919 | 0.973 | 0.975 | 0.997 | 0.909 | 1.02 | 0.958 | 0.963 | 1.04 | 1.03 | 0.92 |
| NCI-H1944 | 0.839 | 0.886 | 0.876 | 0.873 | 0.877 | 1.18 | 0.933 | 0.873 | 1.08 | 0.425 | 1.05 | 1.02 | 0.966 | 0.904 | 1.04 | 1.02 | 0.927 | 0.968 | 0.875 | 0.863 |
| NCI-H2228 | 0.86 | 0.911 | 0.794 | 0.717 | 0.429 | 0.938 | 1.03 | 0.806 | 1.27 | 0.728 | 1.07 | 1.13 | 1.04 | 0.889 | 0.89 | 0.764 | 0.964 | 1.3 | 0.809 | 0.737 |
| NCI-H1792 | – | – | – | – | – | 1.26 | 0.817 | 0.842 | 1.37 | 0.824 | 0.854 | 0.877 | 0.941 | 0.928 | 0.922 | 0.871 | 0.761 | 0.856 | 0.822 | 0.561 |
| HCC-44 | – | – | – | – | – | 1 | 0.962 | 1.06 | 1.04 | 1.04 | 1.01 | 0.94 | 0.938 | 0.934 | 1.01 | 0.958 | 0.939 | 1.04 | 1.02 | 0.843 |
| NCI-H358 | 0.531 | 0.692 | 0.638 | 0.619 | 0.558 | 1.05 | 0.964 | 0.936 | 1.08 | 0.803 | 0.945 | 0.989 | 0.973 | 0.911 | 0.921 | 0.848 | 0.921 | 0.889 | 0.537 | 0.63 |
| NCI-H596 | 0.907 | 0.848 | 0.888 | 0.947 | 0.804 | 0.984 | 0.907 | 0.972 | 0.975 | 1 | 0.986 | 1.02 | 0.898 | 0.932 | 0.952 | 1.09 | 0.98 | 1.12 | 1.09 | 1.07 |
| 201T | 1.11 | – | 1.43 | 1.1 | 1.26 | 1.03 | 0.94 | 0.937 | 1.01 | 0.703 | 0.983 | 0.942 | 0.977 | 0.964 | 0.968 | 1.05 | 1.1 | 1.18 | 1.19 | 1.1 |
| HOP-62 | 1.16 | 1.07 | 1.16 | 1.11 | 1.09 | 1.11 | 0.997 | 1.02 | 1.18 | 1.02 | 0.998 | 0.954 | 0.94 | 0.96 | 1 | 0.976 | 1.04 | 1.09 | 1.05 | 0.972 |
| EBC-1 | 0.0875 | 0.0905 | 0.116 | 0.115 | 0.0903 | 1.07 | 0.894 | 0.865 | 1.05 | 0.759 | 0.931 | 0.965 | 1.12 | 0.963 | 1.06 | 0.981 | 1.04 | 1.1 | 0.924 | 0.822 |
| NCI-H1975 | 1.04 | 0.933 | 0.995 | 0.956 | 0.603 | 1.01 | 0.845 | 0.811 | 0.795 | 0.739 | 0.901 | 0.925 | 1.03 | 1.02 | 1.01 | 0.893 | 0.92 | 0.973 | 0.83 | 0.649 |
| NCI-H1648 | – | – | – | – | – | 1.21 | 0.787 | 0.876 | 0.946 | 0.674 | 1 | 0.893 | 0.766 | 0.987 | 0.74 | 0.644 | 1.02 | 1.11 | 1.25 | 1.49 |

— the supplement of paper PMC10307832
